Assay results: US9278942B2, “Non-steroidal compounds as androgen receptor modulators” (FLX Discoveries Oy, priority 2011, dated 2016)
Where two headings read alike, the source gives them in different places.

Tests used:
human AR [1] = target: T1, human AR (Homo sapiens, UniProt P10275); test: Competitive AR binding assay against [3H]-R1881 in transiently transfected COS-1 cells; conditions: compound 13.4 μM, [3H]-R1881 1.34 nM, complete inhibition equals 100%; for inhibition at 13.4 µM: read-out: Inhibition of [3H]-R1881 binding at 1.34 nM ± S.D.
T1 construct: expressed in transfected cells; host or cells: COS-1
T1 sequence (P10275 1-920): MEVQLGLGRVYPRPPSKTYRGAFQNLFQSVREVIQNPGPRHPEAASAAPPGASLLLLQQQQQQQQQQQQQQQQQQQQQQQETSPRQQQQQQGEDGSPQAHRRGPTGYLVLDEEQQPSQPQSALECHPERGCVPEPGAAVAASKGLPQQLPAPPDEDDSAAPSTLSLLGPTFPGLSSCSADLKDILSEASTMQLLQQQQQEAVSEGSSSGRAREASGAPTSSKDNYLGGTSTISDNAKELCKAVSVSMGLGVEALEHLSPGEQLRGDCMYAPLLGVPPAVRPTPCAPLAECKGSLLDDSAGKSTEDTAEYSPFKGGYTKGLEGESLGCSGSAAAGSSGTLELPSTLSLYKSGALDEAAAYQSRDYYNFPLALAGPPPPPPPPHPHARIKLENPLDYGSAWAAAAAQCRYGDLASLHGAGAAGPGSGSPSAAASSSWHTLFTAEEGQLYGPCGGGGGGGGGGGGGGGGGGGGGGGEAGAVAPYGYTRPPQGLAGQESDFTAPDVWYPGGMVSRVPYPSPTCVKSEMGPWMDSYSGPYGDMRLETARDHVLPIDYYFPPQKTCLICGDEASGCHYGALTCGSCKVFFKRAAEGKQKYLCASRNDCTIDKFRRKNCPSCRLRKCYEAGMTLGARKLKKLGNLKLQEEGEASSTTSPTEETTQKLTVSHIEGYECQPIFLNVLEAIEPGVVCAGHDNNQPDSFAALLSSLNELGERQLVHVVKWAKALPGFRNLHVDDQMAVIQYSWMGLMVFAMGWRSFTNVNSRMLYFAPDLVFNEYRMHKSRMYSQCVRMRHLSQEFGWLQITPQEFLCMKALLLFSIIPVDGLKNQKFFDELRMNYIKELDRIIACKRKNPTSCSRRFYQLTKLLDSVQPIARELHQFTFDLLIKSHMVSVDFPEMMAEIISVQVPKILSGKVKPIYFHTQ
Protocol: Competitive AR Binding Assay.
AR binding was measured by a competitive assay against [^3H]-R1881 (PerkinElmer) in transiently transfected COS-1 cells. One day before transfection, COS-1 cells were seeded into 2 ml of DMEM (Dulbecco's modified Eagle medium, Gipco) with 10% dextran-charcoal-treated fetal bovine serum and 0.25% (vol/vol) Penicillin-Streptomysin (Euroclone) at a density of 140×10^3 cells/well. After medium change to DMEM 2.5% FBS, the cells were transfected for 24 hours with 10 ng/well of human AR expression vector pSG5 hAR by using the TransIT method (Micrus Bio TransIT LT1, Transfection Reagent). After 36 hours, the cells where treated with tested compounds using 10000 fold molarities compared to labelled R1881 (1.34 nM). After 2 hours of incubation at 37° C., the medium was removed. The cells were removed from the wells to 150 μl of 1× phosphate buffered saline (PBS), transferred to Eppendorf tubes and centrifuged at 4° C. using 4000×g for 5 min, and then washed twice with 150 μl of PBS. The cell pellets were dissolved to 50 μl of 0.5M NaOH and incubated for 15 min at 56° C., after which the samples (three replicates for each sample compound) were transferred to liquid twinkle tubes with 3 ml of OptiPhase HiSafe 3 twinkle solution (PerkinElmer) and radioactivity of AR-bound [^3H]-R1881 determined. The results were measured with LKB WALLAC 1214 racbeta equipment. The ability of test compounds to bind AR is reported as reduction in bound radioactivity obtained with 1.34 nM [^3H]-R1881.
The results (% inhibition) were calculated as: % inhibition=100−[100×(averagecompound/average[3H]-R1881)].

human AR [2] = target: T1, human AR; test: AR antagonism assay: inhibition of transcriptional activation of AR (Probasin-luc reporter, COS-1 cells); type: cell-based; conditions: compound 10.0 μM, relative luciferase response: 100% for testosterone (no antiandrogenic effect), 0% for complete antagonism; for remaining activity at 10 µM: COS-1, 18 h, read-out: AR antagonism against 100 nM testosterone ± S.D.
Protocol: Determination of the Antiandrogen Activity.
Testosterone was bought from Sigma Chemical Co. (St. Louis, Mo.) and hydroxyflutamide from Chemos GmbH. One day before transfection, COS-1 cells (from ATCC) were seeded into 1 ml of DMEM (Dulbecco's modified Eagle medium, Gibco) with 10% dextran-charcoal-treated fetal bovine serum and 0.25% (vol/vol) Penicillin-Streptomycin (Euroclone) at a density of 70×10^3 cells/well. After medium change to DMEM 2.5% FBS, the cells were transfected for 24 hours with 10 ng/well of human AR expression vector pSG5-hAR, 100 ng/well of reporter plasmid Probasin-luc, and 10 ng/well of control plasmid pCMV-β-gal by using the TransIT method (Micrus Bio TransIT LT1, Transfection Reagent). After the transfection, the cells received treatment of test compounds giving final concentration of 10 μM for each compound. In the antagonist test the wells were also treated with 100 nM final concentration of testosterone. After 18 hours, the cells were washed, lysed and assayed for luciferase and normalization for β-galactosidase activities and protein concentrations. The cells were washed with 100 μl of cold phosphate buffered saline (PBS) and lysed with 35 μl 1× Reporter lysis Buffer (Promega) and frozen (−70° C.) for 30 minutes. Cell lysates were placed in 1.5-ml propylene tubes and centrifuged at 13200×g for 5 minutes at room temperature. For β-galactosidase assay 10 μl of supernatant from each cell extract was transferred to a 96-well plate (96 well Elisa Microplates, PS, Microcon) and incubated for 10 minutes at 37° C. with 65 μl of reaction mixture consisting 0.76 μl 100×Mg-buffer, 12.5 μl ONPG (4 mg/ml), and 54.3 μl of sodium-phosphate buffer (pH 7). The reaction was stopped with treatment of 125 μl Na2CO3. For luciferase assay 10 μl of the supernatant was transferred to a 96-well plate (Greiner Microlon lumitrac 200) and treated with 30 μl of luciferase assay substrate solution (Promega Luciferase Assay System E1501). For the study of protein concentrations 5 μl of the supernatant was transferred to a 96-well plate (Elisa Microplates, PS, Microcon) and mixed with 200 μl of Bio-rad protein assay reagent. The luciferase activities were measured with Thermo Luminoscan Ascent scanner and the protein concentrations and β-galactosidase activities with Thermo Labsystem Multiscan Ex scanner. Also blank and control samples were measured. During the maintenance, transfection, and treatment with tested compounds the cells were incubated in humidified atmosphere with 5% carbon dioxide at 37° C.

| SMILES | remaining activity at 10 µM (human AR [2]) | inhibition at 13.4 µM (human AR [1]; Table 1) | other results |
| --- | --- | --- | --- |
| O=[N+]([O-])c1ccc(C2=NOC3CCCCCCC23)c(C(F)(F)F)c1 (stereo not drawn) [Example 46a, 3-(4-Nitro-2-trifluoromethyl-phenyl)-3a,4,5,6,7,8,9,9a-octahydro-cycloocta[d]isoxazole] | 3.1 ± 1.7% |  | inhibition at 13.4 µM (human AR [1]; Table 3): 86.4 ± 1.8% |
| Oc1ccc(C2=NOC3CCCCC23)cc1 (stereo not drawn) [Example 26a, 4-(3a,4,5,6,7,7a-Hexahydro-benzo[d]isoxazol-3-yl)-phenol] | 25.7 ± 5.5% |  |  |
| Fc1ccc(C2=NOC3CCCCC23)c(C(F)(F)F)c1 (stereo not drawn) [Example 36a, 3-(4-Fluoro-2-trifluoromethyl-phenyl)-3a,4,5,6,7,7a-hexahydro-benzo[d]-isoxazole] | 49.7 ± 5.1% |  | inhibition at 13.4 µM (human AR [1]; Table 2): 84.6 ± 0.7% |
| O=[N+]([O-])c1ccc(C2=NOC3CCCCC23)cc1 (stereo not drawn) [Example 34ab, 3-(4-Nitro-phenyl)-3a,4,5,6,7,7a-hexahydro-benzo[d]-isoxazole] | 48 ± 6.7% |  |  |
| O=[N+]([O-])c1ccc(C2=NOC3CCCCCCC23)c(C(F)(F)F)c1 (stereo not drawn) [Example 46b, 3-(4-Nitro-2-trifluoromethyl-phenyl)-3a,4,5,6,7,8,9,9a-octahydro-cycloocta[d]isoxazole] |  |  | Inhibition of [3H]-R1881 binding at 1.34 nM ± S.D. (human AR [1]; Table 3): 90.4 ± 3.8%; AR antagonism against 100 nM testosterone ± S.D. (human AR [2]): 2.2 ± 0.8% |
| O=[N+]([O-])c1ccc(C2=NOC3CCCCC23)cc1C(F)(F)F (stereo not drawn) [Example 37ab, 3-(4-Nitro-3-trifluoromethyl-phenyl)-3a,4,5,6,7,7a-hexahydro-benzo-[d]-isoxazole] | 10.6 ± 1.6% | 93.5 ± 0.9% |  |
| N#Cc1ccc(C2=NOC3CCCC23)c(C(F)(F)F)c1 (stereo not drawn) [Example 86ab, 4-(4,5,6,6a-Tetrahydro-3aH-cyclopenta[d]isoxazol-3-yl)-3-trifluoromethyl-benzonitrile] | 29.3 ± 3.7% |  | inhibition at 13.4 µM (human AR [1]; Table 3): 91.7 ± 1.7% |
| Fc1ccc(C2=NOC3CCCCCC23)c(C(F)(F)F)c1 (stereo not drawn) [Example 40b, 3-(4-Fluoro-2-trifluoromethyl-phenyl)-4,5,6,7,8,8a-hexahydro-3aH-cyclohepta[d]isoxazole] |  |  | Inhibition of [3H]-R1881 binding at 1.34 nM ± S.D. (human AR [1]; Table 2): 92.2 ± 0.7%; AR antagonism against 100 nM testosterone ± S.D. (human AR [2]): 15.6 ± 0.8% |
| O=[N+]([O-])c1ccc(C2=NOC3CCCCC23)c(C(F)(F)F)c1 (single isomer, unassigned) [Example 38a, 3-(4-Nitro-2-trifluoromethyl-phenyl)-3a,4,5,6,7,7a-hexahydro-benzo-[d]-isoxazole] |  | 94.5 ± 0.5% | AR antagonism against 100 nM testosterone ± S.D. (human AR [2]): 2.9 ± 0.5% |
| Fc1ccc(C2=NOC3CCCCCCC23)c(C(F)(F)F)c1 (stereo not drawn) [Example 44a, 3-(4-Fluoro-2-trifluoromethyl-phenyl)-3a,4,5,6,7,8,9,9a-octahydro-cycloocta[d]isoxazole] | 19.8 ± 0.5% |  | inhibition at 13.4 µM (human AR [1]; Table 3): 90.3 ± 2.7% |
| O=[N+]([O-])c1ccc(C2=NOC3CCCC23)c(C(F)(F)F)c1 (stereo not drawn) [Example 22ab, 3-(4-Nitro-2-trifluoromethyl-phenyl)-4,5,6,6a-tetrahydro-3aH-cyclopenta[d]isoxazole] | 21.8 ± 4.1% |  | inhibition at 13.4 µM (human AR [1]; Table 3): 89.3 ± 4.7% |
| c1ccc2c(C3=NOC4CCCCC34)cccc2c1 (single isomer, unassigned) [Example 33b, 3-Naphthalen-1-yl-3a,4,5,6,7,7a-hexahydro-benzo[d]-isoxazole] |  |  | Inhibition of [3H]-R1881 binding at 1.34 nM ± S.D. (human AR [1]; Table 1): 56.9 ± 4.4%; AR antagonism against 100 nM testosterone ± S.D. (human AR [2]): 100% |
| Oc1ccc(C2=NOC3CCCCC23)cc1 (stereo not drawn) [Example 26b, 4-(3a,4,5,6,7,7a-Hexahydro-benzo[d]isoxazol-3-yl)-phenol] |  |  | AR antagonism against 100 nM testosterone ± S.D. (human AR [2]): 41.0 ± 1.6% |
| COc1ccccc1C1=NOC2CCCCC12 (stereo not drawn) [Example 23ab, 3-(2-Methoxy-phenyl)-3a,4,5,6,7,7a-hexahydro-benzo[d]isoxazole] | 40.9 ± 2.4% |  |  |
| CCCCN1C(c2ccc3ccccc3c2)=NOC1(C)Cc1ccccc1 (stereo not drawn) [Example 54ab, 5-Benzyl-4-butyl-5-methyl-3-napthalen-2-yl-4,5-dihydro-[1,2,4]oxadiazole] |  | 28.2 ± 3% |  |
| COc1ccccc1C1=NOC(Cc2ccccc2)(c2ccccc2)C1 (single isomer, unassigned) [Example 12a, 5-Benzyl-3-(2-methoxyphenyl)-5-phenyl-4,5-dihydro-isoxazole] |  |  | Inhibition of [3H]-R1881 binding at 1.34 nM ± S.D. (human AR [1]; Table 1): 55.9 ± 1.1% |
| CC(C)CN1C(CCCc2ccccc2)=NOC1(C)Cc1ccccc1 (stereo not drawn) [Example 68ab, 5-Benzyl-4-isobutyl-5-methyl-3-(3-phenyl-propyl)-4,5-dihydro-[1,2,4]oxadiazole] |  | 14.7 ± 1% |  |
| CC1(Cc2ccccc2)CC(c2ccccc2F)=NO1 (stereo not drawn) [Example 4ab, 5-Benzyl-3-(2-fluorophenyl)-5-methyl-4,5-dihydro-isoxazole] |  | 69.9 ± 3.3% |  |
| CC1(Cc2ccccc2)CC(c2ccc(Cl)cc2)=NO1 (stereo not drawn) [Example 7ab, 5-Benzyl-3-(4-chlorophenyl)-5-methyl-4,5-dihydro-isoxazole] |  | 51 ± 2.4% |  |
| CC1(Cc2ccccc2)CC(c2cccc(Cl)c2)=NO1 (stereo not drawn) [Example 6ab, 5-Benzyl-3-(3-chlorophenyl)-5-methyl-4,5-dihydroisoxazole] |  | 31.4 ± 1.9% |  |
